Measurements as given in ChEMBL document CHEMBL1128401, “Structure-activity relationships in the 8-amino-6,7,8,9-tetrahydro-3H-benz[e]indole ring system. 1. Effects of substituents in the aromatic system on serotonin and dopamine receptor subtypes” (J Med Chem, 1995).
Active and inactive are the calls of the source. The calls are words filed in the database; no cut-off is given here.

Assays:
Rattus norvegicus [1] = test: compound was tested in vivo for 5-HTP accumulation in hemispheres (cortex) against reserpine-pretreated rats; I= inactive at the highest dose tested (50).; assay type: functional, organism-based
D(3) dopamine receptor [2] = target: T1, D(3) dopamine receptor (Rattus norvegicus, UniProt P19020); test: The compound was tested in vitro for binding affinity against cloned mammalian Dopamine receptor D3 expressed in CHO cells by, using [3H]spiperone as radioligand; assay type: cell-based
T1 sequence (P19020 whole entry): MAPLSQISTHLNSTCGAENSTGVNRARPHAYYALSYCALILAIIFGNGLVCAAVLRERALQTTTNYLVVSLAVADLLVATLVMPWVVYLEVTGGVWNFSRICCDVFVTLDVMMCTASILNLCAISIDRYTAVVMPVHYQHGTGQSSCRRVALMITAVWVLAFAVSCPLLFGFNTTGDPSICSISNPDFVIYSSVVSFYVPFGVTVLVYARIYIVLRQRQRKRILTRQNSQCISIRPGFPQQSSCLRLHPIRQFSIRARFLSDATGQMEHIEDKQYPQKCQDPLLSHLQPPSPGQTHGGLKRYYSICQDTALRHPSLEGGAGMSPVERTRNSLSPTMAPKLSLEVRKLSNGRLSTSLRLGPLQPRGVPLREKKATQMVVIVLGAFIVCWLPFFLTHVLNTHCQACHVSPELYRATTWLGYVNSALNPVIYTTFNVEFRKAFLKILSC

Rattus norvegicus [3] = test: The compound was tested in vivo for DOPA accumulation in limbic system against reserpine-pretreated rats; I= inactive at the highest dose tested (50).; assay type: functional, organism-based
[4] = target: 5-hydroxytryptamine receptor 1D (Homo sapiens, UniProt P28221); test: Binding affinity against 5-hydroxytryptamine 1D receptor alpha expressed in CHO-K1 cells, using [3H]-5-HT as the radioligand.; assay type: cell-based; conditions: read-out: Ki
5-hydroxytryptamine receptor 1D, sequence (P28221 whole entry): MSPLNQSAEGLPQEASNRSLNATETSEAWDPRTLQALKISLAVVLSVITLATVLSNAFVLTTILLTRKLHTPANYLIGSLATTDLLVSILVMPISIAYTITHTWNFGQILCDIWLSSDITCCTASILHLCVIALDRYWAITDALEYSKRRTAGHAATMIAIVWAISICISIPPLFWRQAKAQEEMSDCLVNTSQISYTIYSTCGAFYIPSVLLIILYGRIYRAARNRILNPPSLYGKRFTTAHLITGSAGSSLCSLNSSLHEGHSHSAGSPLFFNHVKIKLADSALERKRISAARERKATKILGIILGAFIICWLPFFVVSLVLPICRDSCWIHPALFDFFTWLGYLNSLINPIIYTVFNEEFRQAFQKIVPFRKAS

Rattus norvegicus [5] = test: compound was tested in vivo for DOPA accumulation in corpus striatum against reserpine-pretreated rats; P=significant partial reduction only at the highest dose tested (50).; assay type: functional, organism-based
[6] = target: 5-hydroxytryptamine receptor 1B (Homo sapiens, UniProt P28222); test: Binding affinity against 5-hydroxytryptamine 1D receptor beta expressed in CHO-K1 cells, using [3H]5-HT as the radioligand.; assay type: cell-based
5-hydroxytryptamine receptor 1B, sequence (P28222 whole entry): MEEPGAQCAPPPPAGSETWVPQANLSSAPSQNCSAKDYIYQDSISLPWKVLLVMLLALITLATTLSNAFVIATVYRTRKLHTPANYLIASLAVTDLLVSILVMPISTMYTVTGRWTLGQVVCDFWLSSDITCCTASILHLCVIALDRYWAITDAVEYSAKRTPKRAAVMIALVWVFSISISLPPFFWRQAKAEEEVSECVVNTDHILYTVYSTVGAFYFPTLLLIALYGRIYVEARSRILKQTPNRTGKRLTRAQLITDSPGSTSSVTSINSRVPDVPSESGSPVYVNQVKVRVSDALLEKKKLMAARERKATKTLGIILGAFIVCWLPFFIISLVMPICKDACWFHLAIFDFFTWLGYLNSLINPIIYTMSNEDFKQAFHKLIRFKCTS

Rattus norvegicus [7] = test: The compound was tested in vivo for DOPA accumulation in hemispheres (cortex) against reserpine-pretreated rats; I= inactive at the highest dose tested (50).; assay type: functional, organism-based
Rattus norvegicus [8] = test: compound was tested in vivo for 5-HTP accumulation in corpus striatum against reserpine-pretreated rats, activity expressed as ED50; I= inactive at the highest dose tested (50).; assay type: functional, organism-based
Rattus norvegicus [9] = test: compound was tested in vivo for 5-HTP accumulation in limbic system against reserpine-pretreated rats; I= inactive at the highest dose tested (50).; assay type: functional, organism-based
[10] = target: T2, 5-hydroxytryptamine receptor 1A (Rattus norvegicus, UniProt P19327); test: Binding affinity against 5-hydroxytryptamine 1A receptor from CHO-K1 cells, using [3H]8-OH-DPAT as the radioligand.; assay type: cell-based
T2 sequence (P19327 whole entry): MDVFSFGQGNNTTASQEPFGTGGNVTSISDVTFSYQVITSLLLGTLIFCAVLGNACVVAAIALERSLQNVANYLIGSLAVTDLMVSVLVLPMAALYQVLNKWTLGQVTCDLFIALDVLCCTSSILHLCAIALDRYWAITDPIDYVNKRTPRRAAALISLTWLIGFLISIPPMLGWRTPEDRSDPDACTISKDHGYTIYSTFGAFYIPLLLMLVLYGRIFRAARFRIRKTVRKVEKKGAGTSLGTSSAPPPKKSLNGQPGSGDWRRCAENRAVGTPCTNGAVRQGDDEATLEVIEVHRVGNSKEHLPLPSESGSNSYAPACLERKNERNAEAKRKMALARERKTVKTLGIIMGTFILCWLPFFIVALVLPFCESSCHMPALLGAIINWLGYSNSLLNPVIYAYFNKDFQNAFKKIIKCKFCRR

D(2) dopamine receptor [11] = target: T3, D(2) dopamine receptor (Rattus norvegicus, UniProt P61169); test: Binding affinity against Dopamine receptor D2 expressed in CHO-K1 cells, using [3H]U-86170 as the radioligand.; assay type: cell-based
T3 sequence (P61169 whole entry): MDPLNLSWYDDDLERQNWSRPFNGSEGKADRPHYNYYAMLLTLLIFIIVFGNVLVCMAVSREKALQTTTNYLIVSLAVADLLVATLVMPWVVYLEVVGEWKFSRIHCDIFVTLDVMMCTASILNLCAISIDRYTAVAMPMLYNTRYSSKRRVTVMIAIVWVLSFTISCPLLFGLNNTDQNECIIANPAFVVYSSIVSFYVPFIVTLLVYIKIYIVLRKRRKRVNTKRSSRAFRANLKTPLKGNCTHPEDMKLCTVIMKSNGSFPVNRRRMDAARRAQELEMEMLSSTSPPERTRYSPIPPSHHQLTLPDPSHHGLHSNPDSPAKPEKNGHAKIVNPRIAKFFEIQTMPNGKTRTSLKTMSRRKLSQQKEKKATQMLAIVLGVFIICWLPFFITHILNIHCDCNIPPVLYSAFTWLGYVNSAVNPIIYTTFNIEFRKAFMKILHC

[12] = Bioavailability in rat plasma following iv/po dose; assay type: ADME, organism-based
[13] = tmax in hours at a iv dose of 2.0(pmol/g/h).; assay type: ADME, organism-based; conditions: in vivo
Rattus norvegicus [14] = test: Bioavailability in male Sprague-Dawley rats, after the po administration at a dose of 10.0(pmol/g/h); assay type: ADME, organism-based; conditions: in vivo
[15] = Ratio of the 5-HTP accumulation decrease in limbic regions after oral and subcutaneous administration in rat.; assay type: functional, Limbic system
Rattus norvegicus [16] = test: Bioavailability in male Sprague-Dawley rats, after the iv administration at a dose of 2.0(pmol/g/h); assay type: ADME, organism-based; conditions: in vivo
[17] = tmax in hours at a po dose of 10.0(pmol/g/h).; assay type: ADME, organism-based; conditions: in vivo
D(3) dopamine receptor [18] = target: T1, D(3) dopamine receptor; test: Binding affinity against Dopamine receptor D3 expressed in CHO-K1 cells, using [3H]spiperone as the radioligand.; assay type: cell-based
Rattus norvegicus [19] = test: In vivo for 5-HTP accumulation in limbic system against reserpine-pretreated rats.; assay type: functional
Rattus norvegicus [20] = test: In vivo for 5-HTP accumulation in corpus striatum against reserpine-pretreated rats.; assay type: functional
Rattus norvegicus [21] = test: The Compound was tested in vivo for DOPA accumulation in hemispheres (cortex) against reserpine-pretreated rats; I=inactive at the highest dose tested (3.1).; assay type: functional, organism-based
Rattus norvegicus [22] = test: In vivo for DOPA accumulation in limbic system against reserpine-pretreated rats.; assay type: functional
Rattus norvegicus [23] = test: In vivo for DOPA accumulation in corpus striatum against reserpine-pretreated rats.; assay type: functional
Rattus norvegicus [24] = test: The Compound was tested in vivo for DOPA accumulation in hemispheres (cortex) against reserpine-pretreated rats; Iinactive at the highest dose tested (12.5).; assay type: functional, organism-based
Rattus norvegicus [25] = test: In vivo for 5-HTP accumulation in hemispheres (cortex) against reserpine-pretreated rats.; assay type: functional
Rattus norvegicus [26] = test: The Compound was tested in vivo for DOPA accumulation in hemispheres (cortex) against reserpine-pretreated rats; P=significant partial reduction only at the highest dose tested (50).; assay type: functional, organism-based
D(2) dopamine receptor [27] = target: T3, D(2) dopamine receptor; test: Binding affinity against Dopamine receptor D2 from CHO-K1 cells, using [3H]U-86,170 as the radioligand.; assay type: cell-based
Rattus norvegicus [28] = test: The Compound was tested in vivo for DOPA accumulation in hemispheres (cortex) against reserpine-pretreated rats;I= inactive at the highest dose (12.5); assay type: functional, organism-based
Rattus norvegicus [29] = test: The Compound was tested in vivo for DOPA accumulation in limbic system against reserpine-pretreated rats; P=significant partial reduction only at the highest dose tested (50).; assay type: functional, organism-based
Rattus norvegicus [30] = test: Compound was tested in vivo for DOPA accumulation in corpus striatum against reserpine-pretreated rats;P= significant partial reduction only at the highest dose tested (50).; assay type: functional, organism-based
Rattus norvegicus [31] = test: The Compound was tested in vivo for DOPA accumulation in hemispheres (cortex) against reserpine-pretreated rats;I= inactive at the highest dose tested (50).; assay type: functional, organism-based
D(3) dopamine receptor [32] = target: T1, D(3) dopamine receptor; test: Binding affinity against Dopamine receptor D3 from CHO-K1 cells, using [3H]spiperone as the radioligand.; assay type: cell-based; conditions: cho-k1

SMILES | Ki [4] | Ki ([6]; read-out: Ki) | Ki [10] | Ki (D(2) dopamine receptor [11]) | Ki (D(3) dopamine receptor [18]) | ED50 (Rattus norvegicus [19]) | ED50 (Rattus norvegicus [20]) | ED50 (Rattus norvegicus [22]) | ED50 (Rattus norvegicus [25]) | other results
CCCN(CCC)C1CCc2ccc3[nH]cc(CC(F)(F)F)c3c2C1 (centres undefined) | 54 nM | 409 nM | 18 nM | 86 nM |  |  |  |  |  | ED50 (Rattus norvegicus [1]): inactive; Ki (D(3) dopamine receptor [2]): 134 nM; ED50 (Rattus norvegicus [3]): inactive; ED50 (Rattus norvegicus [5]): Weak activity; ED50 (Rattus norvegicus [7]): inactive; ED50 (Rattus norvegicus [8]): inactive; ED50 (Rattus norvegicus [9]): inactive
CN(C)[C@H]1CCc2ccc3[nH]ccc3c2C1 |  |  |  |  |  |  |  |  |  | bioavailability [12]: 72%; Tmax [13]: 2 h; AUC (Rattus norvegicus [14]): 2224 pM ml-1; ED50 ratio [15]: 18; AUC (Rattus norvegicus [16]): 607 pM ml-1; Tmax ([17]; 10 pmol/g/h): 48 h
CCCN(CCC)[C@@H]1CCc2ccc3[nH]ccc3c2C1 | 16 nM | 139 nM |  | 7.4 nM | 30 nM | 0.21 µmol/kg | 0.17 µmol/kg | 0.15 µmol/kg |  | ED50 (Rattus norvegicus [21]): inactive
CCCN(CCC)C1CCc2ccc3[nH]ccc3c2C1 (centres undefined) | 40 nM | 349 nM |  | 15 nM | 37 nM | 0.096 µmol/kg | 0.076 µmol/kg | 0.15 µmol/kg | 0.17 µmol/kg | ED50 (Rattus norvegicus [23]): 0.3 µmol/kg; ED50 (Rattus norvegicus [24]): inactive
CCCN(CCC)[C@H]1CCc2ccc3[nH]ccc3c2C1 | 440 nM | 2280 nM |  | 17 nM | 22 nM | 0.21 µmol/kg | 0.34 µmol/kg | 0.51 µmol/kg | 0.23 µmol/kg | ED50 (Rattus norvegicus [23]): 0.82 µmol/kg; ED50 (Rattus norvegicus [21]): inactive
CCCN(CCC)C1CCc2ccc3[nH]cc(Cl)c3c2C1 (centres undefined) | 23 nM |  | 2 nM | 9.8 nM | 15 nM |  |  |  |  | Ki ([6]; cho-k1): Not Active; ED50 (Rattus norvegicus [26]): Weak activity
CN(C)[C@@H]1CCc2ccc3[nH]ccc3c2C1 |  |  |  |  |  |  |  |  |  | bioavailability [12]: 46%; Tmax [13]: 2 h; AUC (Rattus norvegicus [14]): 848 pM ml-1; AUC (Rattus norvegicus [16]): 431 pM ml-1; T max [17]: 150 h
CCCN(CCC)C1CCc2cc(F)c3[nH]ccc3c2C1 (centres undefined) |  | 216 nM | 1.4 nM |  |  | 1.92 µmol/kg | 0.06 µmol/kg | 1.17 µmol/kg | 0.54 µmol/kg | Ki (D(2) dopamine receptor [27]): 2.8 nM; ED50 (Rattus norvegicus [23]): 1 µmol/kg; ED50 (Rattus norvegicus [28]): inactive
CCCN(CCC)C1CCc2ccc3[nH]cc(C(C)=O)c3c2C1 (centres undefined) | 108 nM | 587 nM | 14 nM | 206 nM | 320 nM | 15.5 µmol/kg | 16 µmol/kg |  | 13 µmol/kg | ED50 (Rattus norvegicus [29]): Weak activity; ED50 (Rattus norvegicus [30]): Weak activity; ED50 (Rattus norvegicus [31]): inactive
CCCN(CCC)[C@@H]1CCc2ccc3[nH]cc(C(=O)C(N)=O)c3c2C1 | 54 nM | 856 nM | 17 nM |  |  |  |  |  |  | Ki (D(2) dopamine receptor [27]): 472 nM; Ki (D(3) dopamine receptor [32]): Not Active
CCCN(CCC)C1CCc2ccc3[nH]cc(C(=O)c4ccccc4)c3c2C1 (centres undefined) |  |  | 8.6 nM | 177 nM | 108 nM |  |  |  |  | 
